The source of these data is patent US11771661B2, “Method of treating post-traumatic stress disorder” (ICAHN SCHOOL OF MEDICINE AT MOUNT SINAI, priority 2013, dated 2023).

Each structure is given as a SMILES string.

One experiment deals with NMDA receptors. As to conditions: read-out: Ki, binding to NMDA receptors; cited from earlier work.
Experiment [1] relates to patients with chronic PTSD. Description: Example 2: randomized, double-blind, midazolam-controlled crossover trial of IV ketamine, symptom ratings. Format: in vivo, human. From the text:
Patients with chronic PTSD were enrolled in a controlled study. […] Exclusion criteria included lifetime history of psychotic or bipolar disorder, current bulimia or anorexia nervosa, alcohol abuse or dependence in the previous three months, serious unstable medical illness or sleep apnea, active suicidal or homicidal ideation on presentation, or current use of any psychotropic medications. All patients underwent a physical examination and laboratory screening including routine hematologic, biochemical and urine toxicology testing, as well as an electrocardiogram to rule out unstable medical illness and active substance use. To receive the second IV infusion, a CAPS score of at least 50 was required prior to the second infusion. The Institutional Review Board at Mount Sinai approved the study, and informed consent was obtained from all study participants.
Study participants were free of concomitant psychotropic medications for two weeks prior to randomization and for the duration of the study. For each procedure day, patients were assigned to receive a single IV infusion of ketamine hydrochloride (0.5 mg/kg) or midazolam (0.045 mg/kg), administered over 40 minutes. Order of infusions (ketamine-midazolam or midazolam-ketamine) was randomly assigned and administrations were two weeks apart. […] Only the research pharmacy was aware of drug identity, and all study personnel, including investigators, anesthesiologists, raters, patients and data analysts were blinded to randomization order.
Following admission and an overnight fast, an indwelling catheter was placed in the antecubital vein of the non-dominant arm. Pulse, blood pressure, pulse-oximetry and ECG monitoring were instituted (see Murrough J et al. Antidepressant efficacy of ketamine in treatment-resistant major depression: a two-site, randomized controlled trial. The American Journal of Psychiatry. 2013 Oct. 1; 170(10):1134-42). Ratings were administered by a trained rater during the infusion and at 240 minutes after the start of the infusion. A different rater, blinded to the ratings during post-infusion on infusion, administered ratings at pre-infusion baseline, 24 hours (Day 1) post-infusion (before patients were discharged from the hospital), 48 hours (Day 2), 72 hours (Day 3), and 7 days (Day 7) post-infusion. Ratings were also administered at 10 and 13 days post-infusion, though data analyses focused on the first week post-infusion due to the expected duration of ketamine action. Patients were instructed to abstain from taking psychotropic medications and from using alcohol or substances of abuse for the duration of the trial. As described above, patients who scored ≥50 on the CAPS 2 weeks after the first infusion received an infusion of the second study drug.
The primary outcome was PTSD symptom severity at 24 hours post-infusion, assessed with the Impact of Event Scale—Revised (IES-R). Twenty-four hours post-infusion was selected as the primary endpoint, as acute sedating and other side effects were expected to have resolved, while potential symptom improvement was expected to persist at 24 hours. Secondary outcome measures included the Montgomery-Asberg Depression Rating Scale (MADRS), the Quick Inventory of Depressive Symptomatology, Self-Report (QIDS-SR), and Clinical Global Impression-Severity (CGI-S) and -Improvement (GCI-I) scales administered by a study clinician at 24 hours, 48 hours, 72 hours and 7 days post-infusion. The IES-R was also administered at 48 hours, 72 hours, and 7 days post-infusion. Additionally, the CAPS was administered 7 days post-infusion.
A mixed-model approach was employed to test effects of treatment, period, and carryover.

Experiment [2] deals with intractable central neuropathic pain. As to conditions: in vivo; cited from earlier work.
The mark [3] stands for this setting: by treatment group (drug given first).
[4] abbreviates: individual responder patients, after first infusion.
Where [5] appears, read: response = 50% improvement in IES-R score at 24 hours post-infusion.

In general, Ki refers to a measure of affinity in units of concentration, obtained from inhibition or displacement. For `CN[C@@]1(c2ccccc2Cl)CCCCC1=O` [R(−)], the Ki at NMDA receptors was 1100 nM.

With `Cc1ncc2n1-c1ccc(Cl)cc1C(c1ccccc1F)=NC2` [midazolam], the “number of patients whose symptoms remained significantly improved” value in experiment [1] (at 2 weeks, CAPS score <50, drug given first) was “one”. Moreover, the “decrease in CAPS score” value in experiment [1] (at 7 days, single infusion study) is 13 (sd=18). Also, in experiment [1] (setting [3]), the “CAPS Total (Week 1), mean” value is 65.69; the “CAPS Total (Week 2), mean” value worked out at 70.81; the “CGI-I (Week 1), mean” value is 3.80; the “CGI-I (Week 2), mean” value worked out at 3.91. In addition, in experiment [1] (setting [3]), the “IES-R Total (Week 1), mean” value was 36.32 and the “IES-R Total (Week 2), mean” value is 32.51. In addition, in experiment [1] (setting [4]), the “CAPS Total (Week 1)” value was found to be 50, the “CAPS Total (Week 2)” value was determined as 30, the “CGI-I (Week 1)” value amounted to 4 and the “CGI-I (Week 2)” value is 4. Moreover, in experiment [1] (setting [4]), the “IES-R Total (Day 10)” value is listed as 6, the “IES-R Total (Week 1)” value was 12.57 and the “IES-R Total (Week 2)” value is 5. In experiment [1] (of all 35 patients), the “IES-R_response No, Percent of total” value is 31.43% and the “IES-R_response Yes, Percent of total” value worked out at 14.29%. Moreover, in experiment [1] (setting [5]), the “IES-R_response No, Frequency” value was 11 and the “IES-R_response Yes, Frequency” value is on record as 5. The “IES-R_response No, Row Pct” value in experiment [1] (share of non-responders) worked out at 55.00 Pct. In addition, the “IES-R_response Yes, Row Pct” value in experiment [1] (share of responders) is on record as 33.33 Pct. Besides, the “IES-R_response No, Col Pct” value in experiment [1] (share of the treatment group) was determined as 68.75 Pct. Also, the “IES-R_response Yes, Col Pct (responded after infusion)” value in experiment [1] (share of the treatment group, 24 hours post-infusion) is on record as 31.25%.

Take `CN[C@]1(c2ccccc2Cl)CCCCC1=O` [S(+)-ketamine]: at NMDA receptors, the Ki was 3200 nM. Further, in experiment [2], the “potency compared with racemic mixture of ketamine” value is given as “two times more potent”.
